Results: ChEMBL document CHEMBL1143848, “Tetracycline resistance in group a streptococci: emergence on a global scale and influence on multiple-drug resistance” (2007)

Test system: Streptococcus
Experiment: Antimicrobial activity against group A streptococci assessed as percent resistant isolates by Etest
Type: functional

| SMILES | Activity |
| --- | --- |
| CN(C)[C@@H]1C(O)=C(C(N)=O)C(=O)[C@@]2(O)C(O)=C3C(=O)c4c(O)cccc4[C@@](C)(O)[C@H]3C[C@@H]12 [TETRACYCLINE] | 38% |
| CC[C@H]1OC(=O)[C@H](C)[C@@H](O[C@H]2C[C@@](C)(OC)[C@@H](O)[C@H](C)O2)[C@H](C)[C@@H](O[C@@H]2O[C@H](C)C[C@H](N(C)C)[C@H]2O)[C@](C)(O)C[C@@H](C)C(=O)[C@H](C)[C@@H](O)[C@]1(C)O [ERYTHROMYCIN] | 25% |
